Experiments:
Settings in all cases: binder
CaMK1d = CaMK1d (Homo sapiens, UniProt Q8IU85)
SLK = SLK (Homo sapiens, UniProt Q9H2G2)
TAF1 = TAF1 (Homo sapiens, UniProt P21675)
TTK = target: T1, TTK (Homo sapiens, UniProt P33981)
T1 sequence (P33981 1-857): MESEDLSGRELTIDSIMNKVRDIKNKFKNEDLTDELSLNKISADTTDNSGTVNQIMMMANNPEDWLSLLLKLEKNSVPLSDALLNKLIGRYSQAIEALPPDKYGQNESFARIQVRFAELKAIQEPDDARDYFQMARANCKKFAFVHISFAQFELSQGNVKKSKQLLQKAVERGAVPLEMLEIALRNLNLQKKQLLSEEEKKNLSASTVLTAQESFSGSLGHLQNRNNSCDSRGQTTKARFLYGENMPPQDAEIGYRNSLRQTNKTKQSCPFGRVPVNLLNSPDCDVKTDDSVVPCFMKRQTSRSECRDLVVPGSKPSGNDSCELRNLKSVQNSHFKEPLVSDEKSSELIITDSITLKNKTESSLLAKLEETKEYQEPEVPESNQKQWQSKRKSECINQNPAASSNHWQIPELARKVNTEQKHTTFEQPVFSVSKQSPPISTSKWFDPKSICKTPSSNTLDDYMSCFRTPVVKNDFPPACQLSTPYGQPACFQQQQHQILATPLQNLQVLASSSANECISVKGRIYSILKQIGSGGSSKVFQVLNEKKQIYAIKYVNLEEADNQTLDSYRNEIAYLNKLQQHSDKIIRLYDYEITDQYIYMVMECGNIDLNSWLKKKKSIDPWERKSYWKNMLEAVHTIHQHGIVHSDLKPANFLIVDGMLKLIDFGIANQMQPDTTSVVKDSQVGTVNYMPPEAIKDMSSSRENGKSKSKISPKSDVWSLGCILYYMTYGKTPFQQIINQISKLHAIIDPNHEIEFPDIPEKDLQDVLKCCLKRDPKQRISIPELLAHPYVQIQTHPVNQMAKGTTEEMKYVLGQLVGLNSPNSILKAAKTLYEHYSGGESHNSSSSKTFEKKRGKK

ULK3 = target: T2, ULK3 (Homo sapiens, UniProt Q6PHR2)
T2 sequence (Q6PHR2 1-472): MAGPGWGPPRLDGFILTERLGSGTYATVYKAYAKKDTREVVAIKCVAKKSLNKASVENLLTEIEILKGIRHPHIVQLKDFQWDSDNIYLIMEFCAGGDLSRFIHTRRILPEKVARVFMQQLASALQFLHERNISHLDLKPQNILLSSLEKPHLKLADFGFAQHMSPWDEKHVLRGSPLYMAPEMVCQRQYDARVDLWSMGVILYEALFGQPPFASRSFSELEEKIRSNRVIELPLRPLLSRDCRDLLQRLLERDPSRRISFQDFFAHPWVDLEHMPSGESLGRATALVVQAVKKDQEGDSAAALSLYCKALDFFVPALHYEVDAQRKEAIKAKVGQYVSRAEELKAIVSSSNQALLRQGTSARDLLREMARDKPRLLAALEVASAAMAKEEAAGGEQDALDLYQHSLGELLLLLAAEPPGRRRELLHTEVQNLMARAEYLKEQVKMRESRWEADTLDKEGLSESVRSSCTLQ

MST1 = target: T3, MST1 (Homo sapiens, UniProt Q13043)
T3 sequence (Q13043 1-487): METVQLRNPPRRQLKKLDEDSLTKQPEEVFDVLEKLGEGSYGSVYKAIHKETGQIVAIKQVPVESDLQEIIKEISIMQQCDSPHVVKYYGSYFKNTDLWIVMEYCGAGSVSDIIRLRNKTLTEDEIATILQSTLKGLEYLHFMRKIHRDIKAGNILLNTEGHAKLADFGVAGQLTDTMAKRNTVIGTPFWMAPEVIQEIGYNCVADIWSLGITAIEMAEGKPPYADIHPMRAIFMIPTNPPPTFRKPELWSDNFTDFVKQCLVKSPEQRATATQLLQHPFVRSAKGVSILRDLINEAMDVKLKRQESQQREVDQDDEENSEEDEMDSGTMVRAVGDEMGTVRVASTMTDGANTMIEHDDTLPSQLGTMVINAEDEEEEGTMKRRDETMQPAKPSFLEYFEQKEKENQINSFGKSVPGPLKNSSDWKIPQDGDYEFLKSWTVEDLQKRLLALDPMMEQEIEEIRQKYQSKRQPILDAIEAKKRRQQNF

MST3 = MST3 (Homo sapiens, UniProt Q9Y6E0)
PAK1 = PAK1 (Homo sapiens, UniProt Q13153)
Sequence of PAK1 (Q13153 whole entry): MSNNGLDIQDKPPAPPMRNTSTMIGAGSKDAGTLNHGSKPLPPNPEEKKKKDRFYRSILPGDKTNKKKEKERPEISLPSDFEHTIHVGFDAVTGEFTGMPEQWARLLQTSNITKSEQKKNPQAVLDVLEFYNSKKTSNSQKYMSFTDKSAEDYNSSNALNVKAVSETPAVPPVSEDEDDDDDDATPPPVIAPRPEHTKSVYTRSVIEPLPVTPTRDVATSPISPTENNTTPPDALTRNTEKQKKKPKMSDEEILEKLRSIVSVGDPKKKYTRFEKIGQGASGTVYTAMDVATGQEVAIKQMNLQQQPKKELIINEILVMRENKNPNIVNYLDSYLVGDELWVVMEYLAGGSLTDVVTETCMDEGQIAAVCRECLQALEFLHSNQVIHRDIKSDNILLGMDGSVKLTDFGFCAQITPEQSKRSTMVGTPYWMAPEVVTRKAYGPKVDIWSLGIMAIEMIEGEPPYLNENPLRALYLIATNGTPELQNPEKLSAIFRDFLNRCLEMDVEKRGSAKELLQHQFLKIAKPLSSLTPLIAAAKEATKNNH

Sequence of CaMK1d (Q8IU85 whole entry): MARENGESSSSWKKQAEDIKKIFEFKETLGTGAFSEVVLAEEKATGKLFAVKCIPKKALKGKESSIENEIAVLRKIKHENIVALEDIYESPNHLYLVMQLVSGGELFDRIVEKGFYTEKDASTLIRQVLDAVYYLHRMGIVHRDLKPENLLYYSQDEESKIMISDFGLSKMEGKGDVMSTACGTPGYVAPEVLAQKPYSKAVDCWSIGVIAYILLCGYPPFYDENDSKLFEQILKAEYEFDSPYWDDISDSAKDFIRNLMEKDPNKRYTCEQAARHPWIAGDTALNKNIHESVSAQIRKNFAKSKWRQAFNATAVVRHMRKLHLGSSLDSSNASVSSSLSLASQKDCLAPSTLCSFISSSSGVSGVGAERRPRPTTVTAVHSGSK
Sequence of MST3 (Q9Y6E0 whole entry): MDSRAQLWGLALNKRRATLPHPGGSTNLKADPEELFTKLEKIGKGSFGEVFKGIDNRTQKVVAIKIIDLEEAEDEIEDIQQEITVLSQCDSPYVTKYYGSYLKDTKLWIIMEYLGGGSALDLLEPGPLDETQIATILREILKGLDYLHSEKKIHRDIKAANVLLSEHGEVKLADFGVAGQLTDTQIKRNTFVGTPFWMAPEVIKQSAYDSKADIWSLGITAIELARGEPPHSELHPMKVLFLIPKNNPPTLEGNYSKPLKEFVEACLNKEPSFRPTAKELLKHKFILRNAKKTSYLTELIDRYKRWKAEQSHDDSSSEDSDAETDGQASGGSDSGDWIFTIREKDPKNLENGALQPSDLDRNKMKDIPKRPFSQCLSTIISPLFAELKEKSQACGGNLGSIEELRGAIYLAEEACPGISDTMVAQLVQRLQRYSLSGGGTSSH
Sequence of TAF1 (P21675 whole entry): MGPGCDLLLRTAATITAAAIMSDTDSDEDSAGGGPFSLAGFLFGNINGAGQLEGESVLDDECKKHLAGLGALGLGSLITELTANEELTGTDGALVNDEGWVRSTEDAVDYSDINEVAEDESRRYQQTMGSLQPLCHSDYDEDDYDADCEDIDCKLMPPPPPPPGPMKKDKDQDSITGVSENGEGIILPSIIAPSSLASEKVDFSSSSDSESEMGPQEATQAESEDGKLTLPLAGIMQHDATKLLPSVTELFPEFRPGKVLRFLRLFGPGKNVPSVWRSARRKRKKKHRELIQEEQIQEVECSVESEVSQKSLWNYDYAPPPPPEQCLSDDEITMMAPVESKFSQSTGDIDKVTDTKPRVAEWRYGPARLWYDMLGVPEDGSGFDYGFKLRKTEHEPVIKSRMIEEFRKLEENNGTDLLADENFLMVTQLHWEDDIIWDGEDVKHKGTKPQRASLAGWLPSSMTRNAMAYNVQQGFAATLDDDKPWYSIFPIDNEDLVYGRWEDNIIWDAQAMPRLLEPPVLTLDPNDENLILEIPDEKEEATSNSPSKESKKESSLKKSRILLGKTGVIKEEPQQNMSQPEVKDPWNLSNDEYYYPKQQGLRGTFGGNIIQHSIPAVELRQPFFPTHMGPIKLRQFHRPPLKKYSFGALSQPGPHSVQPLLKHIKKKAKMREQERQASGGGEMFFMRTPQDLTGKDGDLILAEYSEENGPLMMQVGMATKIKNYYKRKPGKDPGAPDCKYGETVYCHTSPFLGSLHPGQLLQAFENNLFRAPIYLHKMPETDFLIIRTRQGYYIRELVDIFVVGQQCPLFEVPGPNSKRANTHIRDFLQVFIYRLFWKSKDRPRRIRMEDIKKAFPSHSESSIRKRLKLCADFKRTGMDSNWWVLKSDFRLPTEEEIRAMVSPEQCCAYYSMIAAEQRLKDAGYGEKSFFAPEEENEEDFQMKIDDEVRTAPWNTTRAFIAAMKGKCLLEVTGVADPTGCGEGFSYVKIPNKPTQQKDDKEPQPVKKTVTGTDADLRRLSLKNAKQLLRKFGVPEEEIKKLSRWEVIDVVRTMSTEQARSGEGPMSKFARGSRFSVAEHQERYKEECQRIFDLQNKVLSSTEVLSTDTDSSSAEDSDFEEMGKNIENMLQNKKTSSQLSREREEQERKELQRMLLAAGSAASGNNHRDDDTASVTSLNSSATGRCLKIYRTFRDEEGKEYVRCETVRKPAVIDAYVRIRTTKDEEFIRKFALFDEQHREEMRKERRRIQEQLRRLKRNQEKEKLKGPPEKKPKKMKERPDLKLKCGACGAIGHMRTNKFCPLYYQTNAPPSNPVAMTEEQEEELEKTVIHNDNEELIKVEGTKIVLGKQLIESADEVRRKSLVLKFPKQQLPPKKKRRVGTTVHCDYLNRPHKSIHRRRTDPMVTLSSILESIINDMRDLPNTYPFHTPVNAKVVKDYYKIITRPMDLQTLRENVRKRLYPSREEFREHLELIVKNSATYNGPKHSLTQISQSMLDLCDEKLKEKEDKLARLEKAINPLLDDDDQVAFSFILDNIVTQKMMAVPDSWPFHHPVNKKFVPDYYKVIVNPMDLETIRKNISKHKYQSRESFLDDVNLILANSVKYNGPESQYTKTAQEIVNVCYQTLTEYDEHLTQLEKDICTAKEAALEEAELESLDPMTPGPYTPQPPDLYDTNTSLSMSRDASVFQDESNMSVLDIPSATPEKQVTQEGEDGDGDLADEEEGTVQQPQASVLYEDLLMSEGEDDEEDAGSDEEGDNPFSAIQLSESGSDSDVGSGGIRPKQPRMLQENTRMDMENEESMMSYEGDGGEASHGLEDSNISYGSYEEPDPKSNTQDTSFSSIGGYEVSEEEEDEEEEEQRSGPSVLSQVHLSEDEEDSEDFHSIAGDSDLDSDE
Sequence of SLK (Q9H2G2 whole entry): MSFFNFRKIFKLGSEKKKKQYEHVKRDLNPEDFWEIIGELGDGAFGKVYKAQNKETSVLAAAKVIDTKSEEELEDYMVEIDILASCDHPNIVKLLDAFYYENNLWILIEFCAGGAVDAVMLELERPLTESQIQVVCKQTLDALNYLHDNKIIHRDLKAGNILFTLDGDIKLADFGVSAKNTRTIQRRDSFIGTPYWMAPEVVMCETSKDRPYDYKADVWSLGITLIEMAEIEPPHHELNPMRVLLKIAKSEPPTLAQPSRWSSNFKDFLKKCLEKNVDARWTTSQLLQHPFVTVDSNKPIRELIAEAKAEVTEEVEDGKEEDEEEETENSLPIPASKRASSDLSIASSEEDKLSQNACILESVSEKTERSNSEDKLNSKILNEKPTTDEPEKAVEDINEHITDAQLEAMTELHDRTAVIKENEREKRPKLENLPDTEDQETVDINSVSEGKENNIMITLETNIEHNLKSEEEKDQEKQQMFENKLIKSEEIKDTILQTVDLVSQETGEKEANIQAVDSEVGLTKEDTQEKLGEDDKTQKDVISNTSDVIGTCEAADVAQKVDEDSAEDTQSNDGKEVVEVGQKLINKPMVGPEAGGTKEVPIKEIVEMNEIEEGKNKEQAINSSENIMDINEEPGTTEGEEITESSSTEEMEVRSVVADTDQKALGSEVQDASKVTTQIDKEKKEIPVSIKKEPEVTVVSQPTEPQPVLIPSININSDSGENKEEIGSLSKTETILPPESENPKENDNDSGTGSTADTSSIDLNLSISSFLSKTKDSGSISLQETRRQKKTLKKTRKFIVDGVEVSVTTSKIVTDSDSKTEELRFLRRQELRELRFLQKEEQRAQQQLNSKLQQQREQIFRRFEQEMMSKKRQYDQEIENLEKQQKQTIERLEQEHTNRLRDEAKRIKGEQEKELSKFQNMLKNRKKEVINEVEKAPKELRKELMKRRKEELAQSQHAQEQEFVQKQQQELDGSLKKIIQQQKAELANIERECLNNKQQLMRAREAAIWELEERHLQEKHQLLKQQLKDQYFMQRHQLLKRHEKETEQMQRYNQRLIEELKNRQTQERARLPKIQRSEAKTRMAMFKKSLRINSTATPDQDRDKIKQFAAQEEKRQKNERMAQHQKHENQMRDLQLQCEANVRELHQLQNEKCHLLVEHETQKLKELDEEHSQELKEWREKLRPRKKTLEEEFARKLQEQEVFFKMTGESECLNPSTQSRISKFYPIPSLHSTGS

Row | Structure (SMILES) | ΔTm 31 (CaMK1d) [°C] | ΔTm 31 (SLK) [°C] | ΔTm 31 (TAF1) [°C] | ΔTm 31 (TTK) [°C] | ΔTm 31 (ULK3) [°C] | dTm MST1 (MST1) [°C] | dTm MST3 (MST3) [°C] | dTm PAK1 (PAK1) [°C] | ΔTm 32 (CaMK1d) [°C] | ΔTm 32 (SLK) [°C] | ΔTm 32 (TAF1) [°C] | ΔTm 32 (TTK) [°C] | ΔTm 32 (ULK3) [°C]
1 | Cc1cccc(-c2ccc(-c3cc4cnc(Nc5ccc(O)cc5)nc4n(CCCCN)c3=O)c(Cl)c2)n1 [compound 31, 8-(4-Aminobutyl)-6-(2-chloro-4-(6-methylpyridin-2-yl)phenyl)-2-((4-hydroxyphenyl)amino) pyrido[2,3-d]pyrimidin-7(8H)-one] | 5.6 | 7.7 | -1.0 | 5.1 | 14.5 | 8.0 | 17.1 | 9.2 |  |  |  |  | 
2 | Cc1cccc(-c2ccc(-c3cc4cnc(Nc5ccc(C)c(O)c5)nc4n(CCCCN)c3=O)c(Cl)c2)n1 [compound 32, 8-(4-Aminobutyl)-6-(2-chloro-4-(6-methylpyridin-2-yl)phenyl)-2-((3-hydroxy-4-methylphenyl)amino)pyrido[2,3-d]pyrimidin-7(8H)-one] |  |  |  |  |  | 8.1 | 17.5 | 9.1 | 6.0 | 7.8 | 0.5 | 2.2 | 14.3
